{
  "source": "patent US9085555B2",
  "about": "“Complement pathway modulators and uses thereof” (priority 2011, dated 2015)",
  "note": "pIC50: −log10 of the molar value.",
  "data": [
    {"biological_target": "Factor D (Homo sapiens (Human), UniProt P00746)", "sequence (P00746 26-253)": "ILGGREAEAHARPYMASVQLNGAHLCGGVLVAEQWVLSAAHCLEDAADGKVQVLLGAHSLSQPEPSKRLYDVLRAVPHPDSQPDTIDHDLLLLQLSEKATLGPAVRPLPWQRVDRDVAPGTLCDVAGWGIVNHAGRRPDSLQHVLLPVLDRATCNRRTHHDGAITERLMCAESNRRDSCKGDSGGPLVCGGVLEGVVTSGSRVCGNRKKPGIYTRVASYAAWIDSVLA", "test": "biochemical", "assay_type": "biochemical", "conditions": "read-out: IC50", "values": [
      {"smiles": "NC(=O)c1cn(CC(=O)N2C[C@H](F)[C@@H](N)[C@H]2C(=O)NCc2cccc(Cl)c2F)c2ccccc12", "note": "[Example 574, 1-{2-[(2S,3S,4S)-3-Amino-2-(3-chloro-2-fluoro-benzylcarbamoyl)-4-fluoro-pyrrolidin-1-yl]-2-oxo-ethyl}-1H-indole-3-carboxylic acid amide]", "pIC50": 6.66},
      {"smiles": "CC(=O)c1cn(CC(=O)N2C[C@H](F)[C@@H](N)[C@H]2C(=O)NCc2cccc(Cl)c2F)c2ccccc12", "note": "[Example 575, (2S,3S,4S)-1-[2-(3-Acetyl-indol-1-yl)-acetyl]-3-amino-4-fluoro-pyrrolidine-2-carboxylic acid 3-chloro-2-fluoro-benzylamide]", "pIC50": 6.07},
      {"smiles": "CC(=O)c1cn(CC(=O)N2C[C@@H](N)[C@H](F)[C@H]2C(=O)NCc2cccc(Cl)c2F)c2ccccc12", "note": "[Example 576, (2R,3S,4R)-1-[2-(3-Acetyl-indol-1-yl)-acetyl]-4-amino-3-fluoro-pyrrolidine-2-carboxylic acid 3-chloro-2-fluoro-benzylamide]", "pIC50": 6.40},
      {"smiles": "NC(=O)c1cn(CC(=O)N2C[C@H](F)C[C@H]2C(=O)NCc2cccc(Cl)c2F)c2ccc(O)cc12", "note": "[Example 577, 1-{2-[(2S,4R)-2-(3-Chloro-2-fluoro-benzylcarbamoyl)-4-fluoro-pyrrolidin-1-yl]-2-oxo-ethyl}-5-hydroxy-1H-indole-3-carboxylic acid amide]", "pIC50": 7.15},
      {"smiles": "CC(=O)c1cn(CC(=O)N2C[C@H](F)C[C@H]2C(=O)NCc2cccc(Cl)c2F)c2ccc(O)cc12", "note": "[Example 579, (2S,4R)-1-[2-(3-Acetyl-5-hydroxy-indol-1-yl)-acetyl]-4-fluoro-pyrrolidine-2-carboxylic acid 3-chloro-2-fluoro-benzylamide]", "pIC50": 7.41},
      {"smiles": "CC(=O)c1cn(CC(=O)N2C[C@](C)(F)C[C@H]2C(=O)NCc2cccc(Cl)c2F)c2ccc(O)cc12", "note": "[Example 580, (2S,4R)-1-[2-(3-Acetyl-5-hydroxy-indol-1-yl)-acetyl]-4-fluoro-4-methyl-pyrrolidine-2-carboxylic acid 3-chloro-2-fluoro-benzylamide]", "pIC50": 6.60},
      {"smiles": "CC(=O)c1cn(CC(=O)N2[C@@H]3C[C@@H]3C[C@H]2C(=O)NCc2cccc(Cl)c2F)c2ccc(O)cc12", "note": "[Example 581, (1R,3S,5R)-2-[2-(3-Acetyl-5-hydroxy-indol-1-yl)-acetyl]-2-aza-bicyclo[3.1.0]hexane-3-carboxylic acid 3-chloro-2-fluoro-benzylamide]", "pIC50": 7.22},
      {"smiles": "CC(=O)c1cn(CC(=O)N2C[C@](C)(F)C[C@H]2C(=O)NCc2cccc(Cl)c2F)c2cc(O)ccc12", "note": "[Example 582, (2S,4R)-1-[2-(3-Acetyl-6-hydroxy-indol-1-yl)-acetyl]-4-fluoro-4-methyl-pyrrolidine-2-carboxylic acid 3-chloro-2-fluoro-benzylamide]", "pIC50": 6.87},
      {"smiles": "CC(=O)c1cn(CC(=O)N2[C@@H]3C[C@@H]3C[C@H]2C(=O)NCc2cccc(Cl)c2F)c2cc(O)ccc12", "note": "[Example 584, (1R,3S,5R)-2-[2-(3-Acetyl-6-hydroxy-indol-1-yl)-acetyl]-2-aza-bicyclo[3.1.0]hexane-3-carboxylic acid 3-chloro-2-fluoro-benzylamide]", "pIC50": 7.42},
      {"smiles": "NC(=O)c1cn(CC(=O)N2C[C@H](F)C[C@H]2C(=O)NCc2cccc(Cl)c2F)c2cc(OCc3nn[nH]n3)ccc12", "note": "[Example 585, 1-{2-[(2S,4R)-2-(3-Chloro-2-fluoro-benzylcarbamoyl)-4-fluoro-pyrrolidin-1-yl]-2-oxo-ethyl}-6-(1H-tetrazol-5-ylmethoxy)-1H-indole-3-carboxylic acid amide]", "pIC50": 7.77},
      {"smiles": "CC(=O)c1cn(CC(=O)N2C[C@H](F)C[C@H]2C(=O)NCc2cccc(Cl)c2F)c2cc(OCc3nn[nH]n3)ccc12", "note": "[Example 586, (2S,4R)-1-{2-[3-Acetyl-6-(1H-tetrazol-5-ylmethoxy)-indol-1-yl]-acetyl}-4-fluoro-pyrrolidine-2-carboxylic acid 3-chloro-2-fluoro-benzylamide]", "pIC50": 6.88},
      {"smiles": "CC(=O)c1cn(CC(=O)N2[C@@H]3C[C@@H]3C[C@H]2C(=O)NCc2cccc(Cl)c2F)c2cc(OCc3nn[nH]n3)ccc12", "note": "[Example 587, (1R,3S,5R)-2-{2-[3-Acetyl-6-(1H-tetrazol-5-ylmethoxy)-indol-1-yl]-acetyl}-2-aza-bicyclo[3.1.0]hexane-3-carboxylic acid 3-chloro-2-fluoro-benzylamide]", "pIC50": 7.10},
      {"smiles": "COc1ccc2c(c1)c(C(C)=O)cn2CC(=O)N1C[C@H](F)C[C@H]1C(=O)NCc1cccc(Cl)c1F", "note": "[Example 588, (2S,4R)-1-[2-(3-Acetyl-5-methoxy-indol-1-yl)-acetyl]-4-fluoro-pyrrolidine-2-carboxylic acid 3-chloro-2-fluoro-benzylamide]", "pIC50": 7.51},
      {"smiles": "CC(=O)c1cn(CC(=O)N2C[C@H](F)C[C@H]2C(=O)NCc2cccc(Cl)c2F)c2ccc(OCc3ccccn3)cc12", "note": "[Example 589, (2S,4R)-1-{2-[3-Acetyl-5-(pyridin-2-ylmethoxy)-indol-1-yl]-acetyl}-4-fluoro-pyrrolidine-2-carboxylic acid 3-chloro-2-fluoro-benzylamide]", "pIC50": 6.63},
      {"smiles": "CC(=O)c1cn(CC(=O)N2C[C@H](F)C[C@H]2C(=O)NCc2cccc(Cl)c2F)c2ccc(OCc3ncccn3)cc12", "note": "[Example 590, (2S,4R)-1-{2-[3-Acetyl-5-(pyrimidin-2-ylmethoxy)-indol-1-yl]-acetyl}-4-fluoro-pyrrolidine-2-carboxylic acid 3-chloro-2-fluoro-benzylamide]", "pIC50": 8.00},
      {"smiles": "COCCOc1ccc2c(C(N)=O)cn(CC(=O)N3C[C@H](F)C[C@H]3C(=O)NCc3cccc(Cl)c3F)c2c1", "note": "[Example 591, 1-{2-[(2S,4R)-2-(3-Chloro-2-fluoro-benzylcarbamoyl)-4-fluoro-pyrrolidin-1-yl]-2-oxo-ethyl}-6-(2-methoxy-ethoxy)-1H-indole-3-carboxylic acid amide]", "pIC50": 6.96},
      {"smiles": "COC(=O)COc1ccc2c(C(N)=O)cn(CC(=O)N3C[C@H](F)C[C@H]3C(=O)NCc3cccc(Cl)c3F)c2c1", "note": "[Example 592, (3-Carbamoyl-1-{2-[(2S,4R)-2-(3-chloro-2-fluoro-benzylcarbamoyl)-4-fluoro-pyrrolidin-1-yl]-2-oxo-ethyl}-1H-indol-6-yloxy)-acetic acid methyl ester]", "pIC50": 6.94},
      {"smiles": "NC(=O)c1cn(CC(=O)N2C[C@H](F)C[C@H]2C(=O)NCc2cccc(Cl)c2F)c2cc(OCC(=O)O)ccc12", "note": "[Example 593, (3-Carbamoyl-1-{2-[(2S,4R)-2-(3-chloro-2-fluoro-benzylcarbamoyl)-4-fluoro-pyrrolidin-1-yl]-2-oxo-ethyl}-1H-indol-6-yloxy)-acetic acid]", "pIC50": 7.25},
      {"smiles": "NC(=O)c1cn(CC(=O)N2C[C@H](F)C[C@H]2C(=O)NCc2cccc(Cl)c2F)c2cc(OCCO)ccc12", "note": "[Example 594, 1-{2-[(2S,4R)-2-(3-Chloro-2-fluoro-benzylcarbamoyl)-4-fluoro-pyrrolidin-1-yl]-2-oxo-ethyl}-6-(2-hydroxy-ethoxy)-1H-indole-3-carboxylic acid amide]", "pIC50": 7.07},
      {"smiles": "CC(=O)c1cn(CC(=O)N2C[C@H](F)C[C@H]2C(=O)NCc2cccc(Cl)c2F)c2cc(CC(=O)O)ccc12", "note": "[Example 595, (3-Acetyl-1-{2-[(2S,4R)-2-(3-chloro-2-fluoro-benzylcarbamoyl)-4-fluoro-pyrrolidin-1-yl]-2-oxo-ethyl}-1H-indol-6-yl)-acetic acid]", "pIC50": 7.39}
    ]}
  ]
}
